This note sets out measurements from US20120094939A1, “ANTI-VIRAL COMPOUNDS, COMPOSITIONS AND METHODS” (priority 2007, published 2012).

Molecules are shown by their SMILES. Read-outs that look alike come from different tables or passages of the source.

For assay [1], the system named is OR6 cells harboring full-length genotype 1b HCV replicon ORN/C-5B/KE (HCV RNA replication). The assay can be described thus: microbe, parasite or virus in culture. It counts as cell-based, Hepatitis C virus (strain HCV—O. Conditions: for proviral effect on HCV replication (in words) / antiviral activity (in words): OR6 full-length replicon; for proviral effect on HCV replication (in words): 0.1-100 μM. From the text:
HCV Replicon System-Secondary Assays. For validation, OR6 cells stably harboring the full-length genotype 1 replicon, ORN/C-5B/KE9 were used to examine compound activity in a more authentic viral polyprotein context. This replicon was derived from the 1B-2 strain (strain HCV—O, genotype 1b), in which the Renilla luciferase gene is introduced as a fusion protein with neomycin to facilitate the monitoring of HCV replication. This construct contains a tissue culture adaptive mutation in the NS3 region. Cells were cultured in an identical manner to the Huh7/Rep-Feo cells.
Secondary Assays-Hit Validation. Several hits from primary HTS, as well as functionally related compounds, were purchased from Sigma (St. Louis, Mo.), Calbiochem (San Diego, Calif.), and Microsource (Gaylordsville, Conn.). […] Ten mM of stock solutions of the individual compounds to be tested was prepared in the appropriate solvent (DMSO, ethanol, or H2O, according to the manufacturer's information) and stored at −20° C. Cells were seeded into 96-well plates at a density of 2000 cells/well in 100 μL of medium. The cells were incubated for 24 hours at 37° C. to obtain the optimal level of adherence. Solutions of candidate hit compounds were added to wells to achieve final concentrations of 0.1, 1, 10, 50, and 100 μM. The final concentration of DMSO or ethanol in every well was 1% or less by volume. Mock solutions were used as a negative control. PEG-IFN and ribavirin were used as positive controls at various concentrations, alone and in combination. The plates were then incubated at 37° C. with 5% CO2 for 48 hours before they were analyzed. Luminescent signal was generated using the Renilla luciferase assay kit (Promega) according to the manufacturer's instructions. Signal was then detected using a LumiCount (Packard BioScience Company) luminometer. Cell viability was assessed using CellTiter-Glo (Promega), following the manufacturer's instructions. All experiments were performed in triplicate.
Secondary Assays-Data Analysis. Values were presented as a percentage of mock treated control, which was arbitrarily set at 100%. Data were expressed as the mean (±) SD. […] Synergy calculations were performed using CalcuSyn (Biosoft; Cambridge, England).
HCV Replicon System—Secondary Assays: For replicon validation, OR6 cells stably harboring the full-length genotype 1 replicon, ORN/C-5B/KE were used (Burke J. Am. Chem. Soc. (2004) 126:14095-14104). This replicon was derived from the 1B-2 strain (strain HCV—O, genotype 1b), in which the Renilla luciferase gene is introduced as a fusion protein with the Neomycin resistance cassette to facilitate the monitoring of HCV replication. This construct contains a tissue culture adaptive mutation in the NS3 region. Cells were cultured in an identical manner to the Huh7/Rep-Feo cells.
Secondary Assays—Hit Validation: 10 mM of stock solutions of the individual compounds to be tested were prepared in DMSO and stored at −20° C. Cells were seeded into 96-well plates at a density of 2,000 cells/well in 100 μl of medium. The cells were incubated for 24 hours at 37° C. to obtain the optimal level of adherence. Solutions of candidate hit compounds were added to wells to achieve varying final concentrations between 0.01 and 100 μM. The final concentration of DMSO or ethanol in every well was 1% or less by volume. Mock solutions were used as a negative control. Peginterferon-alfa-2b (PEG-Intron; Schering Corp.; Kenilworth, N.J.) and ribavirin (Sigma; St. Louis, Mo.) were used as positive controls at various concentrations, alone and in combination. The plates were then incubated at 37° C. with 5% CO2 for 48 hours before they were analyzed. Luminescent signal was generated using the Renilla luciferase assay kit (Promega; Madison, Wis.) according to the manufacturer's instructions. Signal was then detected using a LumiCount™ (Packard BioScience Company; Downers Grove, Ill.) luminometer.
For orientation: In antiviral work, replicon cells carry a viral genome segment that copies itself.

Assay [2] concerns Huh7/Rep-Feo HCV replicon (HCV RNA replication). It counts as cell-based, Hepatitis C virus (strain HCV—N, genotype 1b). The source says:
Development of the Huh7/Rep-Feo replicon assay. […] This replicon was derived from a chimpanzee infectious clone (strain HCV—N, genotype 1b). In this replicon, the structural genes have been replaced by a reporter gene. The chimeric reporter gene Feo encodes the firefly luciferase protein fused in-frame with neomycin phosphotransferase. This Huh7/Rep-Feo cell supports high levels of autonomous HCV RNA replication because it was derived from the HCV—N strain, which carries an adaptive mutation in NSSA that confers highlevel replication in tissue culture. Furthermore, the level of luciferase correlates well with levels of HCV RNA production, so that luciferase can be used as a reliable surrogate marker for HCV replication. The use of luciferase as a reporter permits quantitative and highthroughput detection of HCV replication levels. The specific use of firefly luciferase makes this replicon especially well-suited for automation, because the luciferase reagent can be added directly to the cell culture system prior to signal detection without the need for cell lysis, washing, or aspiration.
HCV Replicon System-Primary Screening. […] Briefly, this replicon harbors a subgenomic HCV genotype 1b sequence, fused to firefly luciferase, stably replicating under neomycin selection. Cells were propagated in Dulbecco's Modified Eagle's medium (DMEM) containing 10% fetal bovine serum (FBS) supplemented with 1% penicillin-streptomycin, and 500 μg of Geneticin (Invitrogen Corp., Carlsbad, Calif.)/mL. Cells were cultured in a 37° C., 5% CO2-humidified incubator for all experiments. To decrease day-today variability in the assay, a large homogenous population of subconfluent cells was passaged so that a similar lot of cells could be used throughout the HTS assay.
Primary Screening-HTS. Information about the library of known bioactive compounds that was screened and the general automated HTS protocol is available at http://www.broad.harvard.edu/chembio/index.html (see FIG. 10 for list of primary HTS with known bioactives library). Based on the results of optimization experiments in the 384-well plate format, the general HTS protocol was adapted as follows. Unless otherwise indicated, cells were incubated at all times in a humidified environment with 5% CO2 at 37° C. The assay was initiated by plating 30 μL of medium containing 2000 cells/well into white 384-well opaque-bottom plates (Nunc, Rochester, N.Y.) using an automated plate filler (Bio-Tek uFiller; Winsooki, Vt.) and allowing the cells to adhere for 24 hours. One hundred nL of compound stock solutions in DMSO was transferred from stock plates into the 384-well assay plates using an automated pin-based compound transfer robot (CyBio CyBi-Well vario; Woburn, Mass.). The final compound concentration in each well was estimated to be approximately 10-50 μM, with most compounds at 33 μM. The wells contained 0.33% DMSO by volume. The cells were then incubated for another 48 hours. The luminescent signal from each plate was detected using an automated plate reader (Perkin-Elmer Envision 1; Wellesley, Mass.). This screen was performed in duplicate. For negative controls, entire DMSO-treated control plates were employed, in addition to DMSO-only control wells that were incorporated into each compound assay plate. The cells were assayed for luciferase activity using the Bright-Glo Luciferase assay system (Promega), following the manufacturer's instructions. As a counter-screen, cell viability was assessed using the CellTiterGlo Luminescent cell viability assay (Promega) following the manufacturer's instructions.
Computational Data Analysis-Primary Screening. For each replicate, a mock-treatment distribution based on the total population of mock (DMSO) controls in that replicate was built (FIG. 11).

Setting [3] is: known bioactives library, approximately 10-50 μM, most at 33 μM.

Take `C[C@]12C=CC(=O)C=C1CC[C@H]1[C@@H]3C[C@@H](O)[C@](O)(C(=O)CO)[C@@]3(C)C[C@H](O)[C@@]12F` [Triamcinolone, triamcinolone, reference compound]: the “proviral effect on HCV replication (in words)” value (“proviral effect” below) in assay [1] (48 hours) is reported as “confirmed to increase HCV replication”. Further, the “primary screen hit result (in words)” value in assay [2] was “Proviral”. For `CC(C)c1c(C(=O)Nc2ccccc2)c(-c2ccccc2)c(-c2ccc(F)cc2)n1CC[C@@H](O)C[C@@H](O)CC(=O)O` [Atorvastatin, atorvastatin, reference compound], in assay [1] (48 hours), the “antiviral activity (in words)” value is listed as “strong antiviral effects”. In addition, the “primary screen hit result (in words)” value in assay [2] was “Antiviral”. As usually defined, the IC50 is the concentration that gives 50% inhibition. For the molecule `NC(=O)c1ncn([C@@H]2O[C@H](CO)[C@@H](O)[C@H]2O)n1` [ribavirin], in assay [1] (Hepatitis C virus, OR6, 48 h, read-out: IC50 (HCV RNA replication, luciferase), OR6 full-length genotype 1b replicon, 48 hours), the IC50 is 50 to 100 µM.

On to `CC1(C)C=Cc2cc3ccc(=O)oc3cc2O1` [xanthylentin, reference compound], for which the “primary screen hit result (in words)” value in assay [2] (setting [3]) is “Proviral”. Consider `CC(C)C[C@H](NC(=O)OCC1c2ccccc2-c2ccccc21)C(=O)O` [N-(9-fluorenylmethoxycarbonyl)-L-leucine, reference compound], for which the “proviral effect” value in assay [1] (48 hours) is “mild proviral activity”. The “primary screen hit result (in words)” value in assay [2] (setting [3]) is recorded as “proviral hit”; in assay [2] (known bioactives library, approximately 10-50 μM, most at 33 μM, listed as N-9-fluorenylmethoxycarbonyl-L-leucine), “Proviral”. On to `C[C@]12C=CC(=O)C=C1CC[C@@H]1[C@@H]2[C@@H](O)C[C@@]2(C)[C@H]1CC[C@]2(O)C(=O)CO` [prednisolone], for which the “proviral effect” value in assay [1] (48 hours) is given as “increased HCV replication”. For `CC[C@H](C)C(=O)O[C@H]1C[C@@H](C)C=C2C=C[C@H](C)[C@H](CC[C@@H]3C[C@@H](O)CC(=O)O3)[C@H]21` [Lovastatin, lovastatin], the “antiviral activity (in words)” value in assay [1] (48 hours) is on record as “weakly inhibitory”. Regarding `CC(C)NCC(O)COc1cccc2ccccc12` (stereo not shown) [propranolol, reference compound], in assay [2], the “primary screen hit result (in words)” value was “Antiviral”. Take `COc1ccc(CCN(C)CCCC(C#N)(c2ccc(OC)c(OC)c2)C(C)C)cc1OC` (stereo not shown) [verapamil]: the “antiviral activity (in words)” value in assay [1] (48 hours) was “did not exhibit antiviral activity”.

In the case of `Oc1ccc(-c2nc(-c3ccc(F)cc3)c(-c3ccncc3)[nH]2)cc1` [SB 202109, reference compound], in assay [1] (48 hours), the “antiviral activity (in words)” value was “inactive”. The “primary screen hit result (in words)” value in assay [2] (setting [3]) is “inactive”.

For `CC(C)(O)[C@@H]1Cc2cc3ccc(=O)oc3cc2O1` [marmesin, reference compound], the “primary screen hit result (in words)” value in assay [2] (setting [3]) is listed as “Proviral”.

Regarding `CC(C)C1COc2cc3oc(=O)ccc3cc2O1` (stereo not shown) [dihydrobliquin, reference compound], in assay [2] (setting [3]), the “primary screen hit result (in words)” value is recorded as “Proviral”. `O=C1C2C=C(I)C(CC2OCCCCO)[C@@]12CCCO2` (stereo partly shown) [SM_A12B3]: in assay [1] (48 hours), the “antiviral activity (in words)” value was “negligible antiviral activity”. Broadly, the inhibition is the share of the control response that was lost under treatment. For the molecule `CC[C@H](C)C(=O)O[C@H]1C[C@H](O)C=C2C=C[C@H](C)[C@H](CC[C@@H](O)C[C@@H](O)CC(=O)O)[C@H]21` [Pravastatin, pravastatin], the inhibition at 100 µM in assay [1] (Hepatitis C virus, OR6, read-out: inhibition of HCV replication) is 30%.
